Legend:
[1] = tested on: hTfR1; assay: Western blot of hTfR1 protein in Huh7 cells co-transfected with miR-125a-5p vector; assay type: cell-based, human
Description: FIGS. 31A-B. Western blot (FIG. 31A) and quantitative (FIG. 31B) analysis of the cellular expression of human TfR1 after the co-transfection of the miR-125a-5p and TfR1-overexpressing vectors in Huh7 cells. No direct effect by miR-125a-5p on TfR1 expression was observed. Here miR-125a-5p was overexpressed at different plasmid DNA ratios of PCSK7: miRNA: 1:2 (2×), 1:3 (3×), and 1:5 (5×). X stands for vector DNA fold for miR-125-5p compared to vector expressing PC7.
In the next step, the effect of miR-125a-5p on PC7 function was determined. […] Thereafter, the impact of miR-125a-5p on the enzymatic function of PC7 was assessed by co-transfecting Huh7 cells with the miR-125a-5p-overexpressing vector, with that coding for the full length of PCSK7, and a plasmid encoding hTfR1 (Guillemot et al., 2013; Durand et al., 2020). […]
Subsequently, proteins were isolated with an ice-cold RIPA buffer (1×), comprising 50 mM of Tris hydrochloride (pH 8), 150 mM of sodium chloride, 0.1% sodium dodecyl sulfate, 1% Nonidet P40, 0.25% sodium deoxycholate, and a cocktail of protease inhibitors (Roche, Oakville, ON, Canada). […] Both PC7 and TfR1 were C-terminally tagged with V5 and detected with a V5-monoclonal antibody (Invitrogen) and membranes were incubated with appropriate primary and secondary antibodies, as reported (Guillemot et al., 2013). […]

[2] = tested on: 3′-UTR of human PCSK7 mRNAs; assay: Dual-luciferase reporter assay, wild-type PCSK7 3′-UTR, HEK293T cells; assay type: cell-based; settings: wild-type PCSK7 3′-UTR psiCHECK-2, HEK293T
Description: The interactions between the miRNAs and their probable targets on PCSK7 were explored by cloning the potential target regions in psiCHECK-2™ (Promega, USA), a luciferase reporter vector. In psiCHECK-2™, hRluc, the Renilla luciferase gene, is located upstream of the target regions of interest cloned into the psiCHECK-2™ vector downstream of the Renilla gene. The region corresponding to the 3′-UTR of PCSK7 (926-nt sequences in length) that constituted the predicted miRNA response elements was PCR-amplified and cloned downstream of the Renilla luciferase gene in the psiCHECK-2™ vector (Promega, USA). […]
The HEK293T cells were co-transfected through the application of the wild-type psiCHECK-2, the wild-type PCSK7 3′-UTR, the mutant PCSK7 3′-UTR, and the miR-overexpressing vectors so that the direct interactions of the nominated miRNAs with PCSK7 3′-UTR could be investigated. […] Transfection efficiency was monitored by fluorescent microscopy (Nikon TE2000S, Japan) 36 hours following the procedure.
The PsiCHECK-2 reporter construct plasmid contained the Renilla luciferase gene upstream of PCSK7 3′-UTR and an independent firefly luciferase gene as an internal control for normalization. […] Then, LARII Reagent was added, and after 20 minutes, the firefly luciferase activity was measured as a control. Afterward, Renilla activity was determined using Stop & Glo Reagent. […]

miR-125a-5p: miRNA targeting PCSK7 3′-UTR and exons 14 and 15, overexpressed from pEGFP-C1 precursor vector (UCCCUGAGACCCUUUAACCUGUGA; miRNA expressed from a pEGFP-C1 precursor vector, further chemistry not given here)
expression level of the hTfR1 protein [1]: exerted no effect | reduction of relative luciferase activity [2]: ~50%

— US20250129370A1, “METHOD FOR REDUCING HEPATIC TRIGLYCERIDES” (ADAERATA, LIMITED PARTNERSHIP, priority 2022, published 2025)
